In patent publication US5506239A, “Carbostyril derivative and platelets aggregation inhibitory agent” (Otsuka Pharmaceutical Co., Ltd., priority 1991, dated 1996):

How the values were obtained:
platelets [1] = assay: Platelets aggregation inhibitory activity (method of Born et al.), collagen-induced, human PRP (Pharmacological Test I); type: cell-based, man; details: 20 μg/ml collagen, 37° C., read-out: IC50 Collagen (50% platelets aggregation inhibition)
Description: (§1) The platelets aggregation inhibitory activity of each test compound was measured by the method of Born et al. [J. Physiol., London, 162, 67 (1962)], using Platelets Aggregation Tracer manufactured by Nikoh Bioscience Co., Ltd.
(§2) 9 volumes of a blood collected from person was mixed with 1 volume of a 3.8% aqueous sodium citrate solution. Part of the mixture was subjected to centrifugation at 1,100 rpm for 10 minutes to obtain a platelet rich plasma (PRP). The remainder of the mixture was also subjected to centrifugation at 3,000 rpm for 10 minutes to obtain a platelet poor plasma (PPP).
(§3) The number of platelets in the PRP was measured using Coulter Counter manufactured by Coulter Electronics Inc. Then, the PRP was diluted with the PPP so that the number of platelets in the dilution became 300,000, whereby a PRP solution was prepared.
(§4) 200 μl of this PRP solution and 2 ml of a solution containing a test compound at a given concentration were placed in an aggregation measurement cell and heated at 37° C. for 1 minute. Thereto was added 20 μl of adenosine diphosphate (ADP manufactured by Sigma Co.) or a collagen suspension (Collagen Reagent manufactured by Horm, Hormon-Chemie, Gmbh) to induce aggregation of platelets. The resulting mixture in the cell was measured for change of transmittance, after which a platelets aggregation curve was prepared. Incidentaly, the concentration of ADP or collagen was selected so that the final Concentration became 7.5 μM or 20 μg/ml.
(§5) Using the platelets aggregation curve, there was calculated a maximum aggregation rate (MAR) of platelets using the followoing formula: […]
(§6) wherein a represents a transmittance of the PRP obtained in the same manner; c represents a transmittance of the PPP obtained in the same manner; and b represents a transmittance at the maximum change, of the PRP solution containng the test compound and the aggregation inducer.
(§7) A MAR was also calculated as above, for the control containing no test compound.
(§8) Using the above two MARs, there were calculated platelets aggregation inhibitions (%) of each test compound at various concentrations using the following formula.
(§9) Inhibition=[1-(MAR of PRP solution containing test compound)/(MAR of PRP
(§10) solution containing no test compound)]×100
(§11) Using the above obtained platelets aggregation inhibitions (%) of each test compound at various concentrations, there was calculated a concentration (IC50) of each test compound for 50% platelets aggregation inhibition.

mongrel dogs = details: dog, in vivo, 300 mg/kg
Description: The heart rate-increasing activity and blood pressure hypotensive activity of each test compound were measured by the following method, using mongrel dogs each weighing 10-20 kg. That is, said dogs were anesthesized by intravenous injection of pentobarbital sodium, then fixed at the back, and tested under artificial respiration. The blood pressures of the dogs were measured by a blood pressure measuring transducer (P23×L manufactured by Gould Statham Instruments, Inc.) via cannula inserted into the femoral artery. The heart rates of the dogs were measured using the pulse wave of the blood pressure of each dog, via a tachometer. The signals of these testng apparatuses were recorded on a thermal pen-type recorder (Recti-Horize 8K manufactured by Nippon Denki-San-ei Sha).
Some of the compounds obtained in the above Examples were used as test compounds. […] Then, the heart rate of each dog was measured according to the above method and a maximum change in heart rate was calculated.

platelets [2] = assay: Platelets aggregation inhibitory activity (method of Born et al.), ADP-induced, human PRP (Pharmacological Test I); type: cell-based, man; details: 7.5 μM ADP, 37° C., read-out: IC50 ADP (50% platelets aggregation inhibition)
Description: as §1, §2, §3, §4, §5, §6, §7, §8, §9, §10, §11

platelets [3] = assay: Inhibition of collagen-induced platelets adhesion, washed platelets (Pharmacological Test III); type: cell-based, man; details: Platelet, 50 μg/ml collagen, human washed platelets, read-out: Inhibition (%) of collagen-induced platelets adherence
Description: A blood was collected from a healthy person with normal platelets function by addition of 0.1% disodium ethylenediaminetetraacetate (EDTA.4Na) and immediately subjected to separation of a platelet rich plasma (PRP). The PRP was washed twice with a Tyrode's buffer solution (50mM TRIS, 0.1% EDTA, Ca (-), Mg (-), 0.14% BSA added, pH=7.4), and suspended in the buffer solution so that the number of platelets in the resulting suspension became 300, 000/ml, to obtain a platelets suspension (EDTA-WP). 4 mg of Type I manufactured by Sigma Co., derived from a bovine skin was dissolved in 0.25 ml of acetic acid (83.5 mM); 8 ml of distilled water was added thereto; an ultrasonic wave was applied to the mixture at 4° C. for 2 minutes; 5 ml of the supernatant liquid was separated as a collagen solution. Each test compound was dissolved in dimethylformamide (DMF) so as to give a concentration of at least […] when possible, to prepare a test compound solution. The change in turbidity of platelets suspension was recorded as a change in transmitted light emitted from a glass cell containing the suspension, using a platelets aggregation tracer manufactured by Nikoh Bioscience K.K., generally used in the test of platelets aggregation function, whereby the adherence of platelets was measured. Incidentally, in recoridng the change in transmitted light, the sensitivity of the recorder was 5 times as high as that used generally. 200 μl of the EDTA-WP was placed in a glass cell exclusively used for the above platelets aggregation tester. Further, 1 μl of the test compound solution was added. The mixture was incubated at room temperature for 5 minutes. Then, the cell was set in the platelets aggregation tracer and was allowed to stand for 1 minute until the temperature became 37° C. Thereafter, about 20 μl (50 μg/ml) of the collagen solution was added, and the adherence of platelets were measured.
The inhibitions (%) of collagen-induced platelets adhesion by each test compound at various concentrations were calculated using the following formula.
Inhibition (%)=[1-(platelets adherence when test compound added)/
(platelets adherence when no test compound added)]×100

## O=c1ccc2cc(OCCCCN(CCN3CCC(O)CC3)CC3CCCCCCC3)ccc2[nH]1 [Example 15]
Platelets [1]
  IC50: 3.6 µM
Mongrel dogs
  Maximum change in heart rate: 1 beats/minute
Platelets [2]; Homo sapiens, Platelet
  IC50: 10 µM

## O=c1ccc2cc(OCCCCN(CCN3CCC(O)CC3)CC3CCCCCCC3)ccc2[nH]1 [Example 16]
Platelets [3]
  inhibition at 10 µM: 48%
Platelets [1]
  IC50: 7.4 µM
Platelets [2]
  IC50: 6.3 µM

## O=C(CN(CCCCOc1ccc2[nH]c(=O)ccc2c1)CC1CCCCCCC1)N1CCC(O)CC1 [Example 19]
Platelets [1]; Homo sapiens, Platelet
  IC50: 5.3 µM
Mongrel dogs
  Maximum change in heart rate: 24 beats/minute
Platelets [2]; Homo sapiens, Platelet
  IC50: 6.1 µM

## O=C(CN(CCCCCOc1ccc2[nH]c(=O)ccc2c1)Cc1ccccc1)N1CCC(O)CC1 [Example 20]
Platelets [3]
  inhibition at 10 µM: 49%
Platelets [1]; Homo sapiens, Platelet
  IC50: 1.2 µM
Platelets [2]; Homo sapiens, Platelet
  IC50: 2 µM

## O=c1ccc2cc(OCCCCN(CCN3CCC(O)CC3)CC3CCCCC3)ccc2[nH]1 [Example 23]
Platelets [1]; Homo sapiens, Platelet
  IC50: 9.5 µM
Mongrel dogs
  Maximum change in heart rate: -2 beats/minute
Platelets [2]; Homo sapiens, Platelet
  IC50: 8 µM

## CN(C)C(=O)[C@@H]1CCCN1CCN(CCCCCOc1ccc2[nH]c(=O)ccc2c1)Cc1ccccc1 [Example 53]
Platelets [3]
  inhibition at 30 µM: 35%
Platelets [1]; Homo sapiens, Platelet
  IC50: 13 µM
Platelets [2]; Homo sapiens, Platelet
  IC50: 11 µM

## O=C(O)CN(CCCCOc1ccc2[nH]c(=O)ccc2c1)CC1CCCCCCC1 [Example 64]
Platelets [3]
  inhibition at 30 µM: 31%
Platelets [1]; Homo sapiens, Platelet
  IC50: 10 µM
Platelets [2]; Homo sapiens, Platelet
  IC50: 9 µM

## O=c1ccc2cc(OCCCCN(CC(O)CO)CC3CCCCC3)ccc2[nH]1 (centres unmarked) [Example 68]
Platelets [1]; Homo sapiens, Platelet
  IC50: 7.1 µM
Mongrel dogs
  Maximum change in heart rate: 30 beats/minute
Platelets [2]; Homo sapiens, Platelet
  IC50: 15 µM

## COC(=O)[C@@H]1C[C@@H](O)CN1CCCCOc1ccc2[nH]c(=O)ccc2c1 [Example 73]
Platelets [3]; dose 100 μM
  inhibition at 100 µM: 36%
Platelets [1]; Homo sapiens, Platelet
  IC50: 6.9 µM
Platelets [2]; Homo sapiens, Platelet
  IC50: 25 µM

## O=C(NCC1CCCCC1)[C@@H]1C[C@@H](O)CN1CCCCOc1ccc2[nH]c(=O)ccc2c1 [Example 75]
Platelets [3]; dose 300 μM
  inhibition at 300 µM: 57%
Platelets [1]; Homo sapiens, Platelet
  IC50: 13 µM
Platelets [2]; Homo sapiens, Platelet
  IC50: 9.1 µM

## CN(C1CCCCC1)S(=O)(=O)CCCOc1ccc2[nH]c(=O)ccc2c1 [Example 76]
Platelets [3]
  inhibition at 30 µM: 35%

## O=c1ccc2cc(OCCCS(=O)(=O)N(CCN3CCC(O)CC3)Cc3ccccc3)ccc2[nH]1 [Example 83]
Platelets [1]; Homo sapiens, Platelet
  IC50: 4.3 µM
Mongrel dogs
  Maximum change in heart rate: 9 beats/minute
Platelets [2]; Homo sapiens, Platelet
  IC50: 11 µM

## O=c1ccc2cc(OCCCS(=O)(=O)N(CCN3CCC(O)CC3)C3CCCCC3)ccc2[nH]1 [Example 86]
Platelets [3]
  inhibition at 10 µM: 47%
Platelets [1]; Homo sapiens, Platelet
  IC50: 12 µM
Platelets [2]; Homo sapiens, Platelet
  IC50: 8 µM

## O=c1ccc2cc(OCCCCS(=O)(=O)N(CCN3CCCS3(=O)=O)Cc3ccccc3)ccc2[nH]1 [Example 105]
Platelets [1]; Homo sapiens, Platelet
  IC50: 1.1 µM
Platelets [2]; Homo sapiens, Platelet
  IC50: 2.2 µM

## CCN1C[C@H](O)C[C@H]1CN(CC1CCCCC1)S(=O)(=O)CCCCOc1ccc2[nH]c(=O)ccc2c1 [Example 106]
Platelets [1]; Homo sapiens, Platelet
  IC50: 0.9 µM
Platelets [2]; Homo sapiens, Platelet
  IC50: 1.4 µM

## CCN(CC)CC(CO)N(CC1CCCCCCC1)S(=O)(=O)CCCCOc1ccc2[nH]c(=O)ccc2c1 (centres unmarked) [Example 107]
Platelets [1]; Homo sapiens, Platelet
  IC50: 3.2 µM
Platelets [2]; Homo sapiens, Platelet
  IC50: 3.4 µM

## O=c1ccc2cc(OCCCCS(=O)(=O)N(CCNCCO)CC3CCCCCCC3)ccc2[nH]1 [Example 108]
Platelets [1]; Homo sapiens, Platelet
  IC50: 2 µM
Platelets [2]; Homo sapiens, Platelet
  IC50: 2.9 µM

## CCN(CC)CCN(CC1CCCCCC1)S(=O)(=O)CCCOc1ccc2[nH]c(=O)ccc2c1 [Example 110]
Platelets [1]; Homo sapiens, Platelet
  IC50: 8.3 µM
Platelets [2]; Homo sapiens, Platelet
  IC50: 4.7 µM

## CC(=O)NCCN(CC1CCCCCCC1)S(=O)(=O)CCCOc1ccc2[nH]c(=O)ccc2c1 [Example 111]
Platelets [1]; Homo sapiens, Platelet
  IC50: 2.9 µM
Platelets [2]; Homo sapiens, Platelet
  IC50: 2.2 µM

## CC(=O)NCCN(CC1CCCCCCC1)S(=O)(=O)CCCCOc1ccc2[nH]c(=O)ccc2c1 [Example 112]
Platelets [1]; Homo sapiens, Platelet
  IC50: 0.69 µM
Platelets [2]; Homo sapiens, Platelet
  IC50: 0.83 µM

## CCOC(=O)CN(CC1CCCCCCC1)S(=O)(=O)CCCOc1ccc2[nH]c(=O)ccc2c1 [Example 114]
Platelets [1]; Homo sapiens, Platelet
  IC50: 4 µM
Platelets [2]; Homo sapiens, Platelet
  IC50: 6.5 µM

## O=c1ccc2cc(OCCCCN(Cc3ccccc3)S(=O)(=O)CCN3CCC(O)CC3)ccc2[nH]1 [Example 119]
Platelets [3]
  inhibition at 10 µM: 40%
Platelets [1]; Homo sapiens, Platelet
  IC50: 20 µM
Platelets [2]; Homo sapiens, Platelet
  IC50: 20 µM

## O=c1ccc2cc(OCCCCN(Cc3ccccc3)S(=O)(=O)CCn3cncn3)ccc2[nH]1 [Example 121]
Platelets [3]
  inhibition at 30 µM: 38%

## O=c1ccc2cc(OCCCCN(Cc3ccccc3)S(=O)(=O)CCCn3ccnc3)ccc2[nH]1 [Example 122]
Platelets [1]; Homo sapiens, Platelet
  IC50: 29 µM
Platelets [2]; Homo sapiens, Platelet
  IC50: 22 µM

## O=c1ccc2cc(OCCCCN(Cc3ccccc3)S(=O)(=O)CCCn3cncn3)ccc2[nH]1 [Example 123]
Platelets [3]
  inhibition at 10 µM: 39%
Platelets [1]; Homo sapiens, Platelet
  IC50: 9.5 µM
Platelets [2]; Homo sapiens, Platelet
  IC50: 17 µM

## O=c1ccc2cc(OCCCCN(Cc3ccccc3)S(=O)(=O)CCCN3CCC[C@H]3CO)ccc2[nH]1 [Example 126]
Platelets [1]; Homo sapiens, Platelet
  IC50: 15 µM
Platelets [2]; Homo sapiens, Platelet
  IC50: 10 µM

## O=c1ccc2cc(OCCCCN(CCN3CCC(O)CC3)S(=O)(=O)CC3CCCCC3)ccc2[nH]1 [Example 130]
Platelets [3]
  inhibition at 10 µM: 43%
Platelets [1]; Homo sapiens, Platelet
  IC50: 13 µM
Platelets [2]; Homo sapiens, Platelet
  IC50: 14 µM

## O=C(NCCCOc1ccc2[nH]c(=O)ccc2c1)N(CCN1CCC(O)CC1)CC1CCCCCCC1 [Example 131]
Platelets [1]; Homo sapiens, Platelet
  IC50: 1.3 µM
Platelets [2]; Homo sapiens, Platelet
  IC50: 2.4 µM

## O=c1ccc2cc(OCCCNC(=S)N(CCN3CCC(O)CC3)CC3CCCCCCC3)ccc2[nH]1 [Example 132]
Platelets [1]; Homo sapiens, Platelet
  IC50: 1.8 µM
Platelets [2]; Homo sapiens, Platelet
  IC50: 2.4 µM
